The NIST ThermoML archive (doi:10.1021/je034177v)
Numbers after ± are expanded uncertainties.

Experiment: xn = mol fraction of the nth substance listed
Conditions: 101 kPa, Liquid; for mass density: Vibrating tube method; for speed of sound: Pulse-echo method

ClCCCCCCCl [1,6-dichlorohexane] + CCCCCCCCCCCC
Conditions	mass density [kg/m3]	speed of sound [m/s]
303.15 K, x1 = 0.0498	751.5 ± 0.34	–
303.15 K, x1 = 0.1003	761.96 ± 0.33	–
303.15 K, x1 = 0.1497	772.7 ± 0.33	–
303.15 K, x1 = 0.2527	796.64 ± 0.32	–
303.15 K, x1 = 0.4017	835.16 ± 0.32	–
303.15 K, x1 = 0.502	864.08 ± 0.31	–
303.15 K, x1 = 0.6	895.24 ± 0.31	–
303.15 K, x1 = 0.7011	930.52 ± 0.3	–
303.15 K, x1 = 0.7986	968.02 ± 0.3	–
303.15 K, x1 = 0.8998	1011.2 ± 0.29	–
303.15 K, x1 = 0.9493	1034.18 ± 0.29	–
303.15 K, x1 = 0.9691	1043.71 ± 0.29	–
303.15 K, x1 = 1	1059 ± 0.29	–
308.15 K, x1 = 0.0498	747.81 ± 0.33	1238.5 ± 1
308.15 K, x1 = 0.1003	758.26 ± 0.33	1237.4 ± 1
308.15 K, x1 = 0.1497	768.93 ± 0.33	1236.6 ± 0.99
308.15 K, x1 = 0.2527	792.76 ± 0.32	1236 ± 0.96
308.15 K, x1 = 0.4017	831.14 ± 0.32	1237.6 ± 0.93
308.15 K, x1 = 0.502	859.96 ± 0.31	1240.5 ± 0.91
308.15 K, x1 = 0.6	891.01 ± 0.3	1245 ± 0.89
308.15 K, x1 = 0.7011	926.17 ± 0.3	1251.3 ± 0.87
308.15 K, x1 = 0.7986	963.55 ± 0.3	1259.3 ± 0.85
308.15 K, x1 = 0.8998	1006.61 ± 0.29	1269.8 ± 0.84
308.15 K, x1 = 0.9493	1029.52 ± 0.29	1276 ± 0.83
308.15 K, x1 = 0.9691	1039 ± 0.29	1278.5 ± 0.83
308.15 K, x1 = 1	1054.25 ± 0.29	1282.7 ± 0.82
313.15 K, x1 = 0.0498	744.13 ± 0.33	1219.6 ± 1
313.15 K, x1 = 0.1003	754.53 ± 0.33	1218.5 ± 0.99
313.15 K, x1 = 0.1497	765.15 ± 0.33	1217.9 ± 0.98
313.15 K, x1 = 0.2527	788.89 ± 0.32	1217.5 ± 0.96
313.15 K, x1 = 0.4017	827.13 ± 0.31	1219.3 ± 0.93
313.15 K, x1 = 0.502	855.84 ± 0.31	1222.4 ± 0.9
313.15 K, x1 = 0.6	886.78 ± 0.3	1227 ± 0.88
313.15 K, x1 = 0.7011	921.82 ± 0.3	1233.6 ± 0.87
313.15 K, x1 = 0.7986	959.07 ± 0.29	1241.8 ± 0.85
313.15 K, x1 = 0.8998	1002 ± 0.29	1252.5 ± 0.83
313.15 K, x1 = 0.9493	1024.85 ± 0.29	1258.8 ± 0.82
313.15 K, x1 = 0.9691	1034.3 ± 0.29	1261.3 ± 0.82
313.15 K, x1 = 1	1049.5 ± 0.29	1265.7 ± 0.82
318.15 K, x1 = 0.0498	740.46 ± 0.33	1200.9 ± 1
318.15 K, x1 = 0.1003	750.82 ± 0.33	1199.9 ± 0.99
318.15 K, x1 = 0.1497	761.37 ± 0.33	1199.3 ± 0.98
318.15 K, x1 = 0.2527	785.03 ± 0.32	1199 ± 0.95
318.15 K, x1 = 0.4017	823.12 ± 0.31	1201.2 ± 0.92
318.15 K, x1 = 0.502	851.72 ± 0.31	1204.4 ± 0.9
318.15 K, x1 = 0.6	882.55 ± 0.3	1209.2 ± 0.88
318.15 K, x1 = 0.7011	917.48 ± 0.3	1216 ± 0.86
318.15 K, x1 = 0.7986	954.61 ± 0.29	1224.3 ± 0.84
318.15 K, x1 = 0.8998	997.44 ± 0.29	1235.3 ± 0.83
318.15 K, x1 = 0.9493	1020.2 ± 0.29	1241.7 ± 0.82
318.15 K, x1 = 0.9691	1029.61 ± 0.29	1244.3 ± 0.82
318.15 K, x1 = 1	1044.78 ± 0.28	1248.7 ± 0.81
323.15 K, x1 = 0.0498	736.76 ± 0.33	1182.4 ± 1
323.15 K, x1 = 0.1003	747.09 ± 0.33	1181.4 ± 0.98
323.15 K, x1 = 0.1497	757.6 ± 0.33	1180.9 ± 0.97
323.15 K, x1 = 0.2527	781.15 ± 0.32	1180.8 ± 0.95
323.15 K, x1 = 0.4017	819.09 ± 0.31	1183.1 ± 0.92
323.15 K, x1 = 0.502	847.59 ± 0.31	1186.5 ± 0.89
323.15 K, x1 = 0.6	878.32 ± 0.3	1191.6 ± 0.88
323.15 K, x1 = 0.7011	913.12 ± 0.3	1198.5 ± 0.86
323.15 K, x1 = 0.7986	950.13 ± 0.29	1207 ± 0.84
323.15 K, x1 = 0.8998	992.83 ± 0.29	1218.2 ± 0.82
323.15 K, x1 = 0.9493	1015.52 ± 0.29	1224.7 ± 0.81
323.15 K, x1 = 0.9691	1024.9 ± 0.29	1227.4 ± 0.81
323.15 K, x1 = 1	1040.03 ± 0.28	1231.8 ± 0.81
328.15 K, x1 = 0.0498	733.07 ± 0.33	1163.9 ± 0.99
328.15 K, x1 = 0.1003	743.36 ± 0.33	1163 ± 0.98
328.15 K, x1 = 0.1497	753.83 ± 0.33	1162.6 ± 0.97
328.15 K, x1 = 0.2527	777.28 ± 0.32	1162.6 ± 0.94
328.15 K, x1 = 0.4017	815.09 ± 0.31	1165.2 ± 0.91
328.15 K, x1 = 0.502	843.49 ± 0.31	1168.8 ± 0.89
328.15 K, x1 = 0.6	874.11 ± 0.3	1174 ± 0.87
328.15 K, x1 = 0.7011	908.81 ± 0.3	1181.1 ± 0.85
328.15 K, x1 = 0.7986	945.71 ± 0.29	1189.9 ± 0.83
328.15 K, x1 = 0.8998	988.3 ± 0.29	1201.2 ± 0.82
328.15 K, x1 = 0.9493	1010.92 ± 0.29	1207.8 ± 0.81
328.15 K, x1 = 0.9691	1020.27 ± 0.29	1210.5 ± 0.81
328.15 K, x1 = 1	1035.37 ± 0.28	1215.1 ± 0.8
